According to ChEMBL document CHEMBL4825673, “Total and Semisyntheses of Polymyxin Analogues with 2-Thr or 10-Thr Modifications to Decipher the Structure-Activity Relationship and Improve the Antibacterial Activity” (J Med Chem, 2021):
In brackets after ≈: the same amount, converted by molar mass. Positions of bridges follow the written chain, without caps; N, C: chain ends. Non-standard residues stand in square brackets, D forms with d. Residues, ends and D or L forms follow the SMILES beside them. *: point of attachment. Benzoyl(4-Ph) = O=C(c1ccc(-c2ccccc2)cc1)*; Octanoyl = CCCCCCCC(=O)*; Dab = NCC[C@H](N)C(=O)O

Tests used:
[1] = test system: Pseudomonas aeruginosa; assay: Antibacterial activity against Pseudomonas aeruginosa PAE15-14 assessed as inhibition of bacterial growth incubated for 24 hrs by broth microdilution method; format: functional; settings: read-out: MIC100
[2] = test system: Pseudomonas aeruginosa; assay: Antibacterial activity against Pseudomonas aeruginosa PAE15-3 assessed as inhibition of bacterial growth incubated for 24 hrs by broth microdilution method; format: functional; settings: read-out: MIC100
[3] = test system: Moraxella catarrhalis; assay: Antibacterial activity against Moraxella catarrhalis assessed as inhibition of bacterial growth incubated for 24 hrs by broth microdilution method; format: functional; settings: read-out: MIC100
[4] = test system: Pseudomonas aeruginosa; assay: Antibacterial activity against Pseudomonas aeruginosa PAE15-8 assessed as inhibition of bacterial growth incubated for 24 hrs by broth microdilution method; format: functional; settings: read-out: MIC100
[5] = test system: Pseudomonas aeruginosa; assay: Antibacterial activity against Pseudomonas aeruginosa PAO1 assessed as inhibition of bacterial growth incubated for 24 hrs by broth microdilution method; format: functional; settings: read-out: MIC100
[6] = test system: Acinetobacter baumannii; assay: Antibacterial activity against Acinetobacter baumannii ABA15-4 assessed as inhibition of bacterial growth incubated for 24 hrs by broth microdilution method; format: functional; settings: read-out: MIC100
[7] = test system: Moraxella catarrhalis; assay: Antibacterial activity against Moraxella catarrhalis BCA15-3 assessed as inhibition of bacterial growth incubated for 24 hrs by broth microdilution method; format: functional; settings: read-out: MIC100
[8] = test system: Pseudomonas aeruginosa; assay: Antibacterial activity against Pseudomonas aeruginosa PR15-1 assessed as inhibition of bacterial growth incubated for 24 hrs by broth microdilution method; format: functional; settings: read-out: MIC100
[9] = test system: Klebsiella pneumoniae; assay: Antibacterial activity against Klebsiella pneumoniae KR15-2 assessed as inhibition of bacterial growth incubated for 24 hrs by broth microdilution method; format: functional; settings: read-out: MIC100
[10] = test system: HK-2; assay: Cytotoxicity against human HK-2 cells assessed as cell viability incubated for 72 hrs by CCK-8 assay; format: cell-based; settings: hk-2, 72 h
[11] = test system: Escherichia coli; assay: Antibacterial activity against Escherichia coli assessed as inhibition of bacterial growth incubated for 24 hrs by broth microdilution method; format: functional; settings: read-out: MIC100
[12] = test system: Escherichia coli; assay: Antibacterial activity against Escherichia coli ECO+14-3 assessed as inhibition of bacterial growth incubated for 24 hrs by broth microdilution method; format: functional; settings: read-out: MIC100
[13] = test system: Klebsiella pneumoniae; assay: Antibacterial activity against Klebsiella pneumoniae assessed as inhibition of bacterial growth incubated for 24 hrs by broth microdilution method; format: functional; settings: read-out: MIC100
[14] = test system: Klebsiella pneumoniae; assay: Antibacterial activity against Klebsiella pneumoniae KPN+14-8 assessed as inhibition of bacterial growth incubated for 24 hrs by broth microdilution method; format: functional; settings: read-out: MIC100
[15] = test system: Pseudomonas aeruginosa; assay: Antibacterial activity against Pseudomonas aeruginosa ATCC 27853 assessed as inhibition of bacterial growth incubated for 24 hrs by broth microdilution method; format: functional; settings: read-out: MIC100
[16] = test system: Acinetobacter baumannii; assay: Antibacterial activity against Acinetobacter baumannii ABA15-6 assessed as inhibition of bacterial growth incubated for 24 hrs by broth microdilution method; format: functional; settings: read-out: MIC100
[17] = test system: Pseudomonas aeruginosa; assay: Antibacterial activity against Pseudomonas aeruginosa assessed as inhibition of bacterial growth incubated for 24 hrs by broth microdilution method; format: functional; settings: read-out: MIC100
[18] = test system: Acinetobacter baumannii; assay: Antibacterial activity against Acinetobacter baumannii AR15-4 assessed as inhibition of bacterial growth incubated for 24 hrs by broth microdilution method; format: functional; settings: read-out: MIC100
[19] = test system: Acinetobacter baumannii; assay: Antibacterial activity against Acinetobacter baumannii ABA15-5 assessed as inhibition of bacterial growth incubated for 24 hrs by broth microdilution method; format: functional; settings: read-out: MIC100
[20] = test system: Moraxella catarrhalis; assay: Antibacterial activity against Moraxella catarrhalis BCA14-7 assessed as inhibition of bacterial growth incubated for 24 hrs by broth microdilution method; format: functional; settings: read-out: MIC100
[21] = test system: Escherichia coli; assay: Antibacterial activity against Escherichia coli ECO+14-2 assessed as inhibition of bacterial growth incubated for 24 hrs by broth microdilution method; format: functional; settings: read-out: MIC100
[22] = test system: Pseudomonas aeruginosa; assay: Antibacterial activity against Pseudomonas aeruginosa PAE15-5 assessed as inhibition of bacterial growth incubated for 24 hrs by broth microdilution method; format: functional; settings: read-out: MIC100
[23] = test system: Klebsiella pneumoniae; assay: Antibacterial activity against Klebsiella pneumoniae KPN+14-10 assessed as inhibition of bacterial growth incubated for 24 hrs by broth microdilution method; format: functional; settings: read-out: MIC100
[24] = test system: Escherichia coli; assay: Antibacterial activity against Escherichia coli ECO-14-2 assessed as inhibition of bacterial growth incubated for 24 hrs by broth microdilution method; format: functional; settings: read-out: MIC100
[25] = test system: Acinetobacter baumannii; assay: Antibacterial activity against Acinetobacter baumannii assessed as inhibition of bacterial growth incubated for 24 hrs by broth microdilution method; format: functional; settings: read-out: MIC100

Row | Structure (SMILES) | MIC [1] | MIC [2] | MIC [3] | MIC [4] | MIC [5] | MIC [6] | MIC [7] | MIC [8] | MIC [9] | MIC [11] | MIC [12] | MIC [13] | MIC [14] | MIC [16] | MIC [17] | MIC [18] | MIC [19] | MIC [20] | MIC [21] | MIC [22] | other results
1 | CC(C)CCCCC(=O)N[C@@H](CCN)C(=O)N[C@H](C(=O)N[C@@H](CCN)C(=O)N[C@H]1CCNC(=O)[C@H]([C@@H](C)O)NC(=O)[C@H](CCN)NC(=O)[C@H](CCN)NC(=O)[C@H](CC(C)C)NC(=O)[C@@H](Cc2ccccc2)NC(=O)[C@H](CCN)NC1=O)[C@@H](C)OC(=O)[C@@H]1CCCN1 | 0.25 µg/mL (≈ 0.194 µM) | 0.5 µg/mL (≈ 0.389 µM) | > 32 µg/mL | 0.5 µg/mL (≈ 0.389 µM) | 1 µg/mL (≈ 0.777 µM) | 0.03 µg/mL (≈ 0.0233 µM) | 1 µg/mL (≈ 0.777 µM) | 0.25 µg/mL (≈ 0.194 µM) | 0.5 µg/mL (≈ 0.389 µM) | 0.06 µg/mL (≈ 0.0466 µM) | 0.125 µg/mL (≈ 0.0972 µM) | 0.5 µg/mL (≈ 0.389 µM) | 1 µg/mL (≈ 0.777 µM) | < 0.015 µg/mL | 0.03 µg/mL (≈ 0.0233 µM) | 0.03 µg/mL (≈ 0.0233 µM) | 0.03 µg/mL (≈ 0.0233 µM) | 32 µg/mL (≈ 24.9 µM) | 0.5 µg/mL (≈ 0.389 µM) | 0.25 µg/mL (≈ 0.194 µM) | Activity [10]: Non-Toxic; MIC [15]: 0.03 µg/mL (≈ 0.0233 µM); MIC [23]: 0.5 µg/mL (≈ 0.389 µM); MIC [24]: 0.06 µg/mL (≈ 0.0466 µM)
2 | CC[C@H](C)CCCCC(=O)N[C@@H](CCN)C(=O)N[C@H](C(=O)N[C@@H](CCN)C(=O)N[C@H]1CCNC(=O)[C@H]([C@@H](C)O)NC(=O)[C@H](CCN)NC(=O)[C@H](CCN)NC(=O)[C@H](CC(C)C)NC(=O)[C@@H](Cc2ccccc2)NC(=O)[C@H](CCN)NC1=O)[C@@H](C)OC(=O)[C@@H](N)Cc1ccc(O)cc1 | 0.25 µg/mL (≈ 0.183 µM) | 0.5 µg/mL (≈ 0.366 µM) | > 32 µg/mL | 0.5 µg/mL (≈ 0.366 µM) | 1 µg/mL (≈ 0.732 µM) | 0.06 µg/mL (≈ 0.0439 µM) | 1 µg/mL (≈ 0.732 µM) | 0.5 µg/mL (≈ 0.366 µM) | 4 µg/mL (≈ 2.93 µM) | 0.25 µg/mL (≈ 0.183 µM) | 0.25 µg/mL (≈ 0.183 µM) | 2 µg/mL (≈ 1.46 µM) | 4 µg/mL (≈ 2.93 µM) | 0.03 µg/mL (≈ 0.022 µM) | 0.125 µg/mL (≈ 0.0915 µM) | 0.125 µg/mL (≈ 0.0915 µM) | 0.06 µg/mL (≈ 0.0439 µM) | 32 µg/mL (≈ 23.4 µM) | 2 µg/mL (≈ 1.46 µM) | 0.25 µg/mL (≈ 0.183 µM) | MIC [15]: 0.125 µg/mL (≈ 0.0915 µM); MIC [23]: 2 µg/mL (≈ 1.46 µM); MIC [24]: 0.25 µg/mL (≈ 0.183 µM); MIC [25]: 0.03 µg/mL (≈ 0.022 µM)
3 | CCCCCc1ccc(CN[C@@H](CCN)C(=O)N[C@H](C(=O)N[C@@H](CCN)C(=O)N[C@H]2CCNC(=O)[C@H]([C@@H](C)O)NC(=O)[C@H](CCN)NC(=O)[C@H](CCN)NC(=O)[C@H](CC(C)C)NC(=O)[C@@H](Cc3ccccc3)NC(=O)[C@H](CCN)NC2=O)[C@@H](C)O)cc1 | 0.5 µg/mL (≈ 0.409 µM) | 0.5 µg/mL (≈ 0.409 µM) | 8 µg/mL (≈ 6.54 µM) | 0.5 µg/mL (≈ 0.409 µM) | 2 µg/mL (≈ 1.63 µM) | 0.5 µg/mL (≈ 0.409 µM) | 1 µg/mL (≈ 0.817 µM) | 0.5 µg/mL (≈ 0.409 µM) | 1 µg/mL (≈ 0.817 µM) | 0.5 µg/mL (≈ 0.409 µM) | 0.5 µg/mL (≈ 0.409 µM) | 1 µg/mL (≈ 0.817 µM) | 4 µg/mL (≈ 3.27 µM) | 0.5 µg/mL (≈ 0.409 µM) | 0.25 µg/mL (≈ 0.204 µM) | 0.25 µg/mL (≈ 0.204 µM) | 0.25 µg/mL (≈ 0.204 µM) | 8 µg/mL (≈ 6.54 µM) | 1 µg/mL (≈ 0.817 µM) | 0.5 µg/mL (≈ 0.409 µM) | MIC [15]: 0.25 µg/mL (≈ 0.204 µM); MIC [23]: 2 µg/mL (≈ 1.63 µM); MIC [24]: 0.5 µg/mL (≈ 0.409 µM); MIC [25]: 0.25 µg/mL (≈ 0.204 µM)
4 | CCCCCCCC(=O)N[C@@H](CCN)C(=O)N[C@H](C(=O)N[C@@H](CCN)C(=O)N[C@H]1CCNC(=O)[C@H]([C@@H](C)O)NC(=O)[C@H](CCN)NC(=O)[C@H](CCN)NC(=O)[C@H](CC(C)C)NC(=O)[C@@H](Cc2ccccc2)NC(=O)[C@H](CCN)NC1=O)[C@@H](C)O (Octanoyl-[Dab]T[Dab][Dab][Dab][dF]L[Dab][Dab]T; lactam 4-C) | 0.25 µg/mL (≈ 0.21 µM) | 0.25 µg/mL (≈ 0.21 µM) | 16 µg/mL (≈ 13.5 µM) | 0.25 µg/mL (≈ 0.21 µM) | 4 µg/mL (≈ 3.36 µM) | < 0.03 µg/mL | 1 µg/mL (≈ 0.841 µM) | 0.25 µg/mL (≈ 0.21 µM) | 2 µg/mL (≈ 1.68 µM) | 0.25 µg/mL (≈ 0.21 µM) | 0.25 µg/mL (≈ 0.21 µM) | 2 µg/mL (≈ 1.68 µM) | 8 µg/mL (≈ 6.73 µM) | < 0.03 µg/mL | 0.03 µg/mL (≈ 0.0252 µM) | 0.06 µg/mL (≈ 0.0504 µM) | 0.125 µg/mL (≈ 0.105 µM) | 32 µg/mL (≈ 26.9 µM) | 2 µg/mL (≈ 1.68 µM) | 0.125 µg/mL (≈ 0.105 µM) | MIC [23]: 2 µg/mL (≈ 1.68 µM); MIC [24]: 0.25 µg/mL (≈ 0.21 µM); MIC [25]: 0.03 µg/mL (≈ 0.0252 µM)
5 | CC(C)C[C@@H]1NC(=O)[C@@H](Cc2ccccc2)NC(=O)[C@H](CCN)NC(=O)[C@@H](NC(=O)[C@H](CCN)NC(=O)[C@@H](NC(=O)[C@H](CCN)NC(=O)c2ccc(-c3ccccc3)cc2)[C@@H](C)O)CCNC(=O)[C@H]([C@@H](C)O)NC(=O)[C@H](CCN)NC(=O)[C@H](CCN)NC1=O ({Benzoyl(4-Ph)}-[Dab]T[Dab][Dab][Dab][dF]L[Dab][Dab]T; lactam 4-C) | 0.125 µg/mL (≈ 0.101 µM) | 0.5 µg/mL (≈ 0.402 µM) | 8 µg/mL (≈ 6.43 µM) | 0.125 µg/mL (≈ 0.101 µM) | 4 µg/mL (≈ 3.22 µM) | 0.06 µg/mL (≈ 0.0483 µM) | 1 µg/mL (≈ 0.804 µM) | 5 µg/mL (≈ 4.02 µM) | 2 µg/mL (≈ 1.61 µM) | 0.5 µg/mL (≈ 0.402 µM) | 1 µg/mL (≈ 0.804 µM) | 2 µg/mL (≈ 1.61 µM) | 4 µg/mL (≈ 3.22 µM) | 0.125 µg/mL (≈ 0.101 µM) | 0.06 µg/mL (≈ 0.0483 µM) | 0.06 µg/mL (≈ 0.0483 µM) | 0.06 µg/mL (≈ 0.0483 µM) | 16 µg/mL (≈ 12.9 µM) | 2 µg/mL (≈ 1.61 µM) | 0.125 µg/mL (≈ 0.101 µM) | MIC [15]: 0.06 µg/mL (≈ 0.0483 µM); MIC [23]: 2 µg/mL (≈ 1.61 µM); MIC [24]: 0.5 µg/mL (≈ 0.402 µM); MIC [25]: 0.06 µg/mL (≈ 0.0483 µM)
